Each compound was assayed against human PDE4B1 (Homo sapiens (Human), UniProt Q07343) (assay: TR-FRET assay using the LANCE Ultra cAMP kit to determine the activity of hPDE4B1). Settings: IC50 inhibition of PDE4B, mean.
Sequence of human PDE4B1 (Q07343 whole entry): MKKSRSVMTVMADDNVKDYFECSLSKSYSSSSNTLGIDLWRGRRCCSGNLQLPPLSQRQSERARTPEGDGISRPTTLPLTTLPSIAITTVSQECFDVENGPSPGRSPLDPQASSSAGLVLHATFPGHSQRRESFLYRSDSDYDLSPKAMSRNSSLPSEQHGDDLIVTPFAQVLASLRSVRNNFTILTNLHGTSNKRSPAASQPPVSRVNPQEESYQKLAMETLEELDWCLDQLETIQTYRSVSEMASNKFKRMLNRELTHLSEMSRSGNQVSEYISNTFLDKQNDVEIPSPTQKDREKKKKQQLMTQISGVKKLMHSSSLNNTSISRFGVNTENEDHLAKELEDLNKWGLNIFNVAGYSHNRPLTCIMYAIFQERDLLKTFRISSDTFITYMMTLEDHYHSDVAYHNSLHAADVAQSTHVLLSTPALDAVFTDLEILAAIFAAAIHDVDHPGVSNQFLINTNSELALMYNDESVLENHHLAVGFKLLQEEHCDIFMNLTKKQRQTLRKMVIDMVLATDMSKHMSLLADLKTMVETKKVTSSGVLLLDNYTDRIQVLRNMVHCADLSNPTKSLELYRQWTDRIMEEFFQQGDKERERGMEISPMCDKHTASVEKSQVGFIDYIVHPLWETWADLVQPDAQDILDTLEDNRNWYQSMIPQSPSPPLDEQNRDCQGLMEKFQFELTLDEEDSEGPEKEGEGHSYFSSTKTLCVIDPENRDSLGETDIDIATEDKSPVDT
Format: biochemical
Outline: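 Recombinant human PDE4B1 (Sf9-expressed, 0.96 U) incubated with compound and 500 nM cAMP in 50 mM Tris-HCl, 50 mM MgCl2, 5 mM DTT, pH 8.5, 30 min at room temperature. Residual cAMP read by TR-FRET (665/620 nm ratio) after IBMX stop. IC50 from ten-concentration curves as % inhibition of control.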
For `N[C@@H]1CCN(C(=O)c2ccc3c(c2)N(c2ncc(-c4cc(C5CC5)ccn4)cn2)CC32CC2)C1` [Compound 335, (R)-(3-aminopyrrolidin-1-yl)(1′-(5-(4-cyclopropylpyridin-2-yl)pyrimidin-2-yl)spiro[cyclopropane-1,3′-indolin]-6′-yl)methanone], the IC50 was < 0.1 µM. For `O=C(c1ccc2c(c1)N(c1ncc(-c3cc(C4CC4)ccn3)cn1)CC21CC1)N1CCC[C@@H](CO)C1` [Compound 336, [1-[5-(4-Cyclopropyl-pyridin-2-yl)-pyrimidin-2-yl]-spiro[1,2-dihydro-indole-3,1′-cyclopropane]-6-yl]-[(3R)-3-(hydroxymethyl)-piperidin-1-yl]-methanone], the IC50 was < 0.1 µM. In the case of `CN(CC(N)=O)C(=O)c1ccc2c(c1)N(c1ncc(-c3cc(C4CC4)ccn3)cn1)CC21CC1` [Compound 337, N-(Carbamoyl-methyl)-1-[5-(4-cyclopropyl-pyridin-2-yl)-pyrimidin-2-yl]-N-methyl-spiro[1,2-dihydro-indole-3,1′-cyclopropane]-6-carboxylic acid amide], the IC50 is reported as < 0.1 µM. `CC(=O)Nc1ccnc(-c2cnc(N3CC4(CC4)c4ccc(C(=O)N5C[C@@H]6C[C@H]5CN6)cc43)nc2)c1` [Compound 338, N-[2-[2-[6-[(1S,4S)-2,5-Diazabicyclo[2.2.1]heptane-2-carbonyl]-spiro[1,2-dihydro-indole-3,1′-cyclopropane]-1-yl]-pyrimidin-5-yl]-pyridin-4-yl]-acetamide] was tested, and the IC50 was < 0.1 µM. `CN(CCO)C(=O)c1ccc2c(c1)N(c1ncc(-c3nc(CCO)cs3)cn1)CC21CC1` [Compound 339, N-(2-Hydroxy-ethyl)-1-[5-[4-(2-hydroxy-ethyl)-thiaozl-2-yl]-pyrimidin-2-yl]-N-methyl-spiro[1,2-dihydro-indole-3,1′-cyclopropane]-6-carboxylic acid amide] was tested, and the IC50 was < 0.1 µM. `COc1cnnc(-c2cnc(N3CC4(CC4)c4ccc(C(=O)N(C)CCO)cc43)nc2)c1` [Compound 340, N-(2-Hydroxy-ethyl)-1-[5-(5-methoxy-pyridazin-3-yl)-pyrimidin-2-yl]-N-methyl-spiro[1,2-dihydro-indole-3,1′-cyclopropane]-6-carboxylic acid amide] was tested, and the IC50 was < 0.1 µM. With `CC[S+]([O-])c1cccc(-c2cnc(N3CC4(CC4)c4ccc(C(=O)N(C)CCO)cc43)nc2)c1` (centres unmarked) [Compound 341, 1-[5-[3-(Ethylsulfinyl)-phenyl]-pyrimidin-2-yl]-N-(2-hydroxy-ethyl)-N-methyl-spiro[1,2-dihydro-indole-3,1′-cyclopropane]-6-carboxylic acid amide] the IC50 was < 0.1 µM. For `CN(CCO)C(=O)c1ccc2c(c1)N(c1ncc(-c3cccc(C[S+](C)[O-])c3)cn1)CC21CC1` (centres unmarked) [Compound 342, N-(2-Hydroxy-ethyl)-N-methyl-1-[5-[3-[(methylsulfinyl)-methyl]-phenyl]-pyrimidin-2-yl]-spiro[1,2-dihydro-indole-3,1′-cyclopropane]-6-carboxylic acid amide], the IC50 was < 0.1 µM. For `CCNc1ccc(F)c(-c2cnc(N3CC4(CC4)c4ccc(C(=O)N(C)CCO)cc43)nc2)c1` [Compound 343, 1-[5-(5-Ethylamino-2-fluoro-phenyl)-pyrimidin-2-yl]-N-(2-hydroxy-ethyl)-N-methyl-spiro[1,2-dihydro-indole-3,1′-cyclopropane]-6-carboxylic acid amide], the IC50 was < 0.1 µM. With `C[S+]([O-])c1ccnc(-c2cnc(N3CC4(CC4)c4ccc(C(=O)N5CCOCC5)cc43)nc2)c1` (centres unmarked) [Compound 344, (1′-(5-(4-(methylsulfinyl)pyridin-2-yl)pyrimidin-2-yl)spiro[cyclopropane-1,3′-indolin]-6′-yl)(morpholino)methanone] the IC50 was < 0.1 µM. For `CS(=O)(=O)c1ccnc(-c2cnc(N3CC4(CC4)c4ccc(C(=O)N5CCOCC5)cc43)nc2)c1` [Compound 345, [1-[5-(4-Methylsulfonyl-pyridin-2-yl)-pyrimidin-2-yl]-spiro[1,2-dihydro-indole-3,1′-cyclopropane]-6-yl]-morpholin-4-yl-methanone], the IC50 was < 0.1 µM. `CC(=O)Nc1ccnc(-c2cnc(N3CC4(CC4)c4ccc(C(=O)N5CCOCC5)cc43)nc2)c1` [Compound 346, N-[2-[2-[6-(Morpholine-4-carbonyl)-spiro[1,2-dihydro-indole-3,1′-cyclopropane]-1-yl]-pyrimidin-5-yl]-pyridin-4-yl]-acetamide] was tested, and the IC50 was < 0.1 µM. With `CN(CCO)C(=O)c1ccc2c(c1)N(c1ncc(-c3cc(CO)cs3)cn1)CC21CC1` [Compound 347, N-(2-Hydroxy-ethyl)-1-[5-[4-(hydroxymethyl)-thiophen-2-yl]-pyrimidin-2-yl]-N-methyl-spiro[1,2-dihydro-indole-3,1′-cyclopropane]-6-carboxylic acid amide] the IC50 was < 0.1 µM. For `CN(CCO)C(=O)c1ccc2c(c1)N(c1ncc(-c3cc(C(N)=O)cs3)cn1)CC21CC1` [Compound 348, 1-[5-(4-Carbamoyl-thiophen-2-yl)-pyrimidin-2-yl]-N-(2-hydroxy-ethyl)-N-methyl-spiro[1,2-dihydro-indole-3,1′-cyclopropane]-6-carboxylic acid amide], the IC50 was < 0.1 µM. In the case of `CN(CCO)C(=O)c1ccc2c(c1)N(c1ncc(-c3nc(CC#N)cs3)cn1)CC21CC1` [Compound 350, 1-[5-[4-(Cyano-methyl)-thiazol-2-yl]-pyrimidin-2-yl]-N-(2-hydroxy-ethyl)-N-methyl-spiro[1,2-dihydro-indole-3,1′-cyclopropane]-6-carboxylic acid amide], the IC50 is reported as < 0.1 µM. With `O=C(c1ccc2c(c1)N(c1ncc(-c3cc(C4(O)CC4)ccn3)cn1)CC21CC1)N1CCOCC1` [Compound 351, [1-[5-[4-(1-Hydroxy-cyclopropyl)-pyridin-2-yl]-pyrimidin-2-yl]-spiro[1,2-dihydro-indole-3,1′-cyclopropane]-6-yl]-morpholin-4-yl-methanone] the IC50 was < 0.1 µM. With `O=C(c1ccc2c(c1)N(c1ncc(-c3ccccc3F)cn1)CC21CC1)N1CCO[C@H](CO)C1` [Compound 354, [1-[5-(2-Fluorophenyl)-pyrimidin-2-yl]-spiro[1,2-dihydro-indole-3,1′-cyclopropane]-6-yl]-[(2S)-2-(hydroxymethyl)-morpholin-4-yl]-methanone] the IC50 was < 0.1 µM. In the case of `C[S+]([O-])c1ccc(F)c(-c2cnc(N3CC4(CC4)c4ccc(C(=O)N5CCOCC5)cc43)nc2)c1` (centres unmarked) [Compound 355, [1-[5-[2-Fluoro-5-(methylsulfinyl)-phenyl]-pyrimidin-2-yl]-spiro[1,2-dihydro-indole-3,1′-cyclopropane]-6-yl]-morpholin-4-yl-methanone], the IC50 is reported as < 0.1 µM. With `Nc1ccnc(-c2cnc(N3CC4(CC4)c4ccc(C(=O)N5C[C@H]6C[C@@H]5CN6)cc43)nc2)c1` [Compound 356, [1-[5-(4-Amino-pyridin-2-yl)-pyrimidin-2-yl]-spiro[1,2-dihydro-indole-3,1′-cylcopropane]-6-yl]-[(1R,4R)-2,5-diazabicyclo[2.2.1]heptan-2-yl]-methanone] the IC50 was < 0.1 µM. In the case of `CN(CCO)C(=O)c1ccc2c(c1)N(c1ncc(-c3nc(CO)cs3)cn1)CC21CC1` [Compound 357, N-(2-Hydorxy-ethyl)-1-[5-[4-(hydroxymethyl)-thiazol-2-yl]-pyrimidin-2-yl]-N-methyl-spiro[1,2-dihydro-indole-3,1′-cyclopropane]-6-carboxylic acid amide], the IC50 is reported as < 0.1 µM.

From US10189854B2, “Substituted pyrimidine compounds” (Grünenthal GmbH, priority 2014, dated 2019)
